Read-outs that look alike come from different tables or passages of the source. Peptide text beside a SMILES is read from it. * marks the point of attachment. Cbz = O=C(OCc1ccccc1)*; CH2F = FC*
Experiments:
[1] = system: AD patients; conditions: cited from earlier work
[2] = system: dbAMPc/NGF-differentiated human SH-SY5Y human neuroblastoma cells; experiment: Generation of the 20-22 kDa NH2 tau fragment in differentiated SH-SY5Y exposed to soluble AD brain extracts (Western blot); assay type: cell-based; conditions: 12 h with 1 mg/ml AD brain extract
Text: FIG. 5. The soluble extracts from AD brain homogenates containing Aβ oligomers induce neurotoxicity and production of the NH2-derived 20-22 kDa tau fragment through the caspase-(s) activation in human differentiated SY5Y. A-B): Biochemical characterization of native Aβ oligomers enriched by crude soluble proteins extracts of AD and age-matched non-demented control brain prepared as reported by, which contained almost no Aβ monomers since the ability of these low-molecular weight species to pass readily through the 10 kDa cutoff filters under the conditions used here. Samples extracted from two different AD brain specimens were pooled and retentates—obtained by 10 kDa cutoff filters (Vivaspin 4 VSO403)—were added to the cell culture at a final concentration of 1 mg/ml. […] Unheated samples were applied on the gel in two different lanes and after transfer the membrane was cut in two equal parts and analyzed in parallel. […] Each data point is the mean±SE (bars) of five independent experiments and statistically significant differences were calculated by paired t-Student's test (*p<0.05; ***p<0.001). […] Each data point is the mean±SE (bars) of three independent experiments and statistically significant differences were calculated by paired t-Student's test (*p<0.05; **p<0.01; ***p<0.001). […]

[3] = system: adenine nucleotide translocator (ANT-1); conditions: in vitro; cited from earlier work
[4] = system: neuronal mitochondria; conditions: cited from earlier work; for intracellular ATP bioavailability: ATP synthesized by neuronal mitochondria
[5] = molecular target: T1, 20-22 kDa NH2-truncated tau fragment (human, UniProt P10636 26-547); experiment: co-immunoprecipitation from synaptosomes with CCP-NH2 tau as bait antibody
T1 construct: Endogenous fragment in human synaptosomes, mitochondria, CSF and STS-treated SH-SY5Y cells; Exact limits not proven; also called NH2htau; NH2 htau fragment
T1 sequence (P10636 other isoform, or with tags, fused parts or gaps limits assumed): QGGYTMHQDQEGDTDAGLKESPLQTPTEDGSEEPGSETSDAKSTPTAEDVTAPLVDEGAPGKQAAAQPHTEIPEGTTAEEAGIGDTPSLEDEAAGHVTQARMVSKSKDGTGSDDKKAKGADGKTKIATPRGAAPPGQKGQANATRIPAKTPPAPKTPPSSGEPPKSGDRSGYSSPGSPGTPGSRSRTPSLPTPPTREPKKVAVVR
Experimental: A): Western blotting comparing synaptosomal proteins (500 μg) from ND, AD (ND, AD) subjects immunoprecipitated (IP) and probed (WB) with CCP—NH₂ tau (NH₂ aa 26-36 of human tau) antiserum. Total proteins extracts (70 μg unbound) from STS-treated (6hSY5Y) neuronal human SY5Y and from AD synaptosomal proteins (INPUT) were also loaded for lane and included as positive internal control of electrophoretic mobility and immunoprecipitation efficiency. It is noteworthy that a NH₂-tau fragment around 20-22 kDa (arrow), but not-full-length proteins running at 55-75 kDa(arrowheads), was efficiently immunoprecipitated by CCP—NH₂ tau antiserum on synaptic-enriched fractions from AD. The asterisk indicate immunoglobulin light chains in immunoprecipitates and no significant cross-reactions with human intact tau iso forms was found in total, un-precipitated proteins. B-F): In C), Western blotting analysis comparing synaptosomal proteins (500 μg) from ND, AD (ND, AD) subjects immunoprecipitated (IP) with CCP—NH₂ tau (NH₂ aa26-36 of human tau) antiserum and probed (WB) with ANT-1 antibody (the least C-terminal 12 amino acids of human neuronal ANT-1). […]
Next the authors analyzed whether ANT-1—the neuronal-specific isoform of ANT protein—was a mitochondrial target of the NH₂htau fragment.

Q: For Cc1ccc2c(c1)c1c(n2CCc2ccc(C)nc2)CCN(C)C1 [Dimebon], which “duration of improved cognitive performance in AD patients” value [1] is on record?
A: 12-18 months

Q: Which “appearance of 20-22 kDa NH2 tau fragment after pre-incubation with protease inhibitor” value ([2]; 100 μM Z-VADfmk or 20 μM MDL28170) does the source give for COC(=O)C[C@H](NC(=O)[C@H](C)NC(=O)[C@@H](NC(=O)OCc1ccccc1)C(C)C)C(=O)CF [Z-VADfmk] (Cbz-Val-Ala-Asp(OMe)-CH2F) here?
A: significantly reduced the appearance of 20-22 kDa NH2 tau fragment

Q: And the “caspase-3 activation (cleaved caspase-3 Western blot)” value ([2]; 100 μM Z-VADfmk)?
A: blocking the caspase-3 activation

Q: Which results are given for “NH2-26-44 peptide: synthesized NH2-26-44 tau peptide, minimal active moiety of the NH2-26-230 human tau fragment (QGGYTMHQDQEGDTDAGLK)”?
A: ANT-1-mediated ADP/ATP exchange [3]: specifically inhibited the ANT-1-mediated ADP/ATP exchange in a non-competitive manner; intracellular ATP bioavailability [4]: reduces the intracellular ATP bioavailability; intracellular ATP bioavailability ([4]; listed as NH226-44 tau): reduced the intracellular bioavailability of ATP; mitochondrial oxidative phosphorylation ([4]; in vitro): impairs the mitochondrial oxidative phosphorylation

B1: MnSOD-II (enzyme, human, UniProt P04179 25-222, looked up)
chain: KHSLPDLPYDYGALEPHINAQIMQLHHSKHHAAYVNNLNVTEEKYQEALAKGDVTAQIALQPALKFNGGGHINHSIFWTNLSPNGGGEPKGELLEAIKRDFGSFDKFKEKLTAASVGVQGSGWGWLGFNKERGHLQIAACPNQDPLQGTTGLIPLLGIDVWEHAYYLQYKNVRPDYLKAIWNVINWENVTERYMACKK
notes: also called mitochondrial superoxide dismutase
Q: Does B1 bind [5]?
A: no binding

Source: patent US20130210042A1, “DIAGNOSTIC AND PROGNOSTIC METHOD FOR HUMAN TAUOPATHIES” (CONSIGLIO NAZIONALE DELLE RICERCHE, priority 2010, published 2013)
